Measured values published in patent US20260157993A1, “USE OF 2-METHYLOXOLANE FOR FEEDING OVIPAROUS ANIMALS” (ECOXTRACT, priority 2022, published 2026).

Experiments:
domestic laying hens = assay: Egg production of domestic laying hens after oral administration in capsules; type: in vivo, chicken; settings: for Number of eggs (average number of eggs per day laid by 4 chickens): oral capsules, control 3.5
Protocol: In this example, domestic laying hens have been divided into four groups: • the 4 chickens of the control group have not ingested 2-methyloxolane. • the 12 chickens of the N×1 group have ingested pure liquid 2-methyloxolane in capsules. The ingested dose of pure liquid 2-methyloxoane was 3.18 mg/kg of the chicken/day, i.e. 40 mg/kg in the daily ration, • the 12 chickens of the N×5 group have ingested pure liquid 2-methyloxolane in capsules. The ingested dose of pure liquid 2-methyloxoane was 15.88 mg/kg of the chicken/day, i.e. 200 mg/kg in the daily ration, and • the 12 chickens of the N×10 group have ingested pure liquid 2-methyloxolane in capsules. The ingested dose of pure liquid 2-methyloxoane was 31.77 mg/kg of the chicken/day, i.e. 400 mg/kg in the daily ration (the group N×10). The egg production of each group has been monitored in order to statistically validate the significance of the effect of an oral administration of 2-methyloxolane on egg production. The statistical processing is as follows: A one-factor analysis of variance (ANOVA) has been carried out using the XLSTAT 2020.2.1 software on MS EXCEL 16.0.15225. […] In case of a significant difference between the averages, a Student's t-test with a level of significance of 5% will be applied for the comparison in pairs using the same software. In total, 1,115 eggs have been counted throughout the observations. Table 1 hereinbelow presents the average of the number of eggs per day laid by 4 chickens as a function of their basking group.

rats = settings: 3-month ingestion; cited from earlier work
human = settings: EFSA Opinion of Mar. 15, 2022; cited from earlier work
average human of 50 kg = settings: ICHQ3C R8, solvent to be limited; cited from earlier work

| Structure (SMILES) | Effect of oral administration on number of laid eggs per chicken (domestic laying hens; 40 to 400 mg/kg in daily ration, no apparent dose effect, ANOVA and Student's t-test, 5% level) | Number of eggs (average number of eggs per day laid by 4 chickens) (domestic laying hens; N × 1 group: 3.18 mg/kg of the chicken/day, i.e. 40 mg/kg in the daily ration) | Number of eggs (average number of eggs per day laid by 4 chickens) (domestic laying hens; N × 5 group: 15.88 mg/kg of the chicken/day, i.e. 200 mg/kg in the daily ration) | Number of eggs (average number of eggs per day laid by 4 chickens) (domestic laying hens; N × 10 group: 31.77 mg/kg of the chicken/day, i.e. 400 mg/kg in the daily ration) | More eggs laid per week than animal whose feed is not supplemented (domestic laying hens; feed supplemented by the dietary supplement comprising 2-methyloxolane) | Dose with no undesirable effect observed (rats) [mg/kg body weight per day] | Human exposure limit recommended by EFSA (human) | Acceptable Daily Dose (average human of 50 kg) [mg] |
| --- | --- | --- | --- | --- | --- | --- | --- | --- |
| CC1CCCO1 (centres unmarked) [2-methyloxolane] | significantly increases | 3.9 | 3.9 | 3.9 | up to 14% | 250 | 1 mg/kg human body weight per day |  |
| CCCCCC [hexane] |  |  |  |  |  |  |  | 2.9 |
